Laboratory results as given in ChEMBL document CHEMBL1131216, “Anhydrolide macrolides. 2. Synthesis and antibacterial activity of 2,3-anhydro-6-O-methyl 11,12-carbazate erythromycin A analogues” (1998).
Converted amounts (≈) assume the structure as drawn.

Experiments:
Format in all cases: functional
Haemophilus influenzae = test: In vitro antibacterial activity of DILL strain of Gram negative bacteria Haemophilus influenzae
Streptococcus pneumoniae [1] = test: In vitro antibacterial activity of 5649 strain of Gram positive bacteria Streptococcus pneumoniae
Streptococcus pneumoniae [2] = test: In vitro antibacterial activity of 5979 strain of Gram positive bacteria Streptococcus pneumoniae
Streptococcus pneumoniae [3] = test: In vitro antibacterial activity of ATCC 6303 strain of Gram positive bacteria Streptococcus pneumoniae
Staphylococcus aureus [4] = test: In vivo antibacterial activity of NCTC-10649 strain of Gram positive bacteria Staphylococcus aureus
Streptococcus pneumoniae [5] = test: In vivo antibacterial activity of ATCC 6303 strain of Gram positive bacteria Streptococcus pneumoniae (95% confidence interval)
Staphylococcus aureus [6] = test: In vitro antibacterial activity of A5177 strain of Gram positive bacteria Staphylococcus aureus
Staphylococcus aureus [7] = test: In vivo antibacterial activity of NCTC-10649 strain of Gram positive bacteria Staphylococcus aureus (95% confidence interval)
Streptococcus pneumoniae [8] = test: In vivo antibacterial activity of ATCC 6303 strain of Gram positive bacteria Streptococcus pneumoniae
Streptococcus pyogenes [9] = test: In vitro antibacterial activity of 930 strain of Gram positive bacteria Streptococcus pyogenes
Streptococcus pyogenes [10] = test: In vitro antibacterial activity of EES61 strain of Gram positive bacteria Streptococcus pyogenes
Streptococcus pyogenes [11] = test: In vitro antibacterial activity of PIU2584 strain of Gram positive bacteria Streptococcus pyogenes
Staphylococcus aureus [12] = test: In vitro antibacterial activity of A-5278 strain of Gram positive bacteria Staphylococcus aureus
Staphylococcus aureus [13] = test: In vitro antibacterial activity of 6538P strain of Gram positive bacteria Staphylococcus aureus

MIC (Haemophilus influenzae): 2 µg/mL (≈ 2.69 µM)
MIC (Streptococcus pneumoniae [1]): 1 µg/mL (≈ 1.35 µM)
MIC (Streptococcus pneumoniae [2]): > 128 µg/mL
MIC (Streptococcus pneumoniae [3]): 0.03 µg/mL (≈ 0.0404 µM)
MIC (Staphylococcus aureus [4]): 0.2 µg/mL (≈ 0.269 µM)
MIC (Staphylococcus aureus [6]): 0.2 µg/mL (≈ 0.269 µM)
MIC (Streptococcus pneumoniae [8]): 0.03 µg/mL (≈ 0.0404 µM)
MIC (Streptococcus pyogenes [9]): > 128 µg/mL
MIC (Streptococcus pyogenes [10]): 0.03 µg/mL (≈ 0.0404 µM)
MIC (Streptococcus pyogenes [11]): 1 µg/mL (≈ 1.35 µM)
MIC (Staphylococcus aureus [12]): > 100 µg/mL
MIC (Staphylococcus aureus [13]): 0.2 µg/mL (≈ 0.269 µM)
SMILES: CC[C@H]1OC(=O)/C(C)=C/[C@H](C)[C@@H](O[C@@H]2O[C@H](C)C[C@H](N(C)C)[C@H]2O)[C@@](C)(OC)C[C@@H](C)C(=O)[C@H](C)[C@H]2N(NC/C=C/c3ccc(N)cc3)C(=O)O[C@]12C
ED50 (Streptococcus pneumoniae [5]): 9.9 mg/kg/day
ED50 (Staphylococcus aureus [7]): 39.9 mg/kg/day
